# Reference: BindingDB's records for PubMed 9618428 (Glaxo Wellcome Research and Development, 1998)
# Values joined by “and” are separate entries in the source; they are usually repeats but may differ in a detail not shown here. Equal values may be shown once.
# Assays:
# [1] = target: Melatonin receptor type 1A (Sus scrofa, UniProt O02781)
# [2] = target: T1, Melatonin receptor type 1B (Homo sapiens, UniProt P49286)
# T1 sequence (P49286 whole entry): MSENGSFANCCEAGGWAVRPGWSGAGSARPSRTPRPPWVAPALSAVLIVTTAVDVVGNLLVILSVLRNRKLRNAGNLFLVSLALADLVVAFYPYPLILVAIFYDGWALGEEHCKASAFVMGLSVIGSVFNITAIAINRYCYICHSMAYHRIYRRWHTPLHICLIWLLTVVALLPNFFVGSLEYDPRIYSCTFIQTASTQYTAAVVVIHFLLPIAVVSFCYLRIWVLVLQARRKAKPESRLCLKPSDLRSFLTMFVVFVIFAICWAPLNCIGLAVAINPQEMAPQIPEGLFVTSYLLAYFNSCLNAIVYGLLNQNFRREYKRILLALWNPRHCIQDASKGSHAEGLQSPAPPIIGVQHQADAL
# [3] = target: Melatonin receptor type 1A (Homo sapiens, UniProt P48039)
# Melatonin receptor type 1A (Homo sapiens, UniProt P48039), sequence (P48039 whole entry): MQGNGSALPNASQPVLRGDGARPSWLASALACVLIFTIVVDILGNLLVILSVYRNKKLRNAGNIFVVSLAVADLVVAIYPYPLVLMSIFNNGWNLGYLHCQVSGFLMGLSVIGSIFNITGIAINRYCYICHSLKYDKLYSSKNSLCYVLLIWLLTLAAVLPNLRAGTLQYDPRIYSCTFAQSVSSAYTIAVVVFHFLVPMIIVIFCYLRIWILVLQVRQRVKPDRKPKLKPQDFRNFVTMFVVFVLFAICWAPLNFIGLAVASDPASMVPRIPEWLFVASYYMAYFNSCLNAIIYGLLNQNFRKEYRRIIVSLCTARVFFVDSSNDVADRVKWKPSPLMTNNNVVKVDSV
# Melatonin receptor type 1A (Sus scrofa, UniProt O02781), sequence (O02781 whole entry): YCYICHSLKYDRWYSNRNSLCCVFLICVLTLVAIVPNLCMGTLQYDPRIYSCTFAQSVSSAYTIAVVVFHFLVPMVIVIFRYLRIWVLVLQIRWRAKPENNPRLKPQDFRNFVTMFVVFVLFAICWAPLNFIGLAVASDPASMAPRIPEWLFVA
Structure (SMILES),Ki [1],Ki [2],Ki [3] [nM]
COc1cc2c(CCNC(C)=O)c[nH]c2cc1Cl,0.46 nM and 0.74 nM,,
CC(=O)NCCc1c(Cc2ccccc2)[nH]c2ccccc12 [CAS_117946-91-5],933 nM and 676 nM,,
CC(=O)NCCN1CCc2ccc3c(c21)CCO3 [NSC_5311134],0.61 nM and 0.33 nM,0.16 nM,0.14
"CC(=O)NCCc1c[nH]c2ccc(O)cc12 [N-Acetyltryptamine,5-Hydroxy]",398 nM and 347 nM,302 nM and 148 nM,79.4
"COc1cc2c(CCNC(C)=O)c[nH]c2cc1O [melatonin, 6-Hydroxy]",10.2 nM and 25.1 nM,2.23 nM and 1.69 nM,0.54
COc1ccc2[nH]cc(CCNC(C)=O)c2c1,0.25 nM and 0.24 nM,,
COc1ccc2[nH]c(I)c(CCNC(C)=O)c2c1,0.03 nM and 0.04 nM,,
